Earlier results in PubChem BioAssay AID1259409 (Chemical Carcinogenesis Research Information System (CCRIS), 2018).

Tested on: rodent chemically induced tumor inhibition, incidence and multiplicity
Assay: CCRIS tumor inhibitor studies

O=C(O)[C@@H](O)[C@@H](O)[C@H](O)[C@@H](O)C(=O)O
tumour outcome (control, treated, inhibition, significance) (Carcinogen: 7,12-DIMETHYLBENZ[A]ANTHRACENE, 57-97-6, Dose [Inhibitor]: 0, 2% IN DIET FOR THE DURATION OF STUDY BEGINNING 1 WK PRIOR TO CARCINOGEN DOSE (STUDY DURATION: 105 WK), Route [Inhibitor]: ORAL, Species: RAT, Strain/Sex: SPRAGUE-DAWLEY/FEMALE, Target Tissue: Type of Lesion: MAMMARY GLAND: TUMOR, Dose [Carcinogen]: 15 MG IN 1 ML SESAME OIL ONCE, Promoter: NONE USED): 88%, 80%, 9%, not significant | tumour outcome (control, treated, inhibition, significance) (Carcinogen: 7,12-DIMETHYLBENZ[A]ANTHRACENE, 57-97-6, Dose [Inhibitor]: 0, 128 MMOL/KG OF DIET FOR 15.5 WK BEGINNING 10 D POST CARCINOGEN DOSE (STUDY DURATION: 17 WK), Route [Inhibitor]: ORAL, Species: RAT, Strain/Sex: SPRAGUE-DAWLEY/FEMALE, Target Tissue: Type of Lesion: MAMMARY GLAND: TUMOR, Dose [Carcinogen]: 15 MG IN 1 ML OF SESAME OIL ONCE AT 50 D OF AGE, Promoter: NONE USED): 92%, 58%, 37%, not calculated | tumour outcome (control, treated, inhibition, significance) (Carcinogen: 7,12-DIMETHYLBENZ[A]ANTHRACENE, 57-97-6, Dose [Inhibitor]: 0, 128 MMOL/KG OF DIET FOR 18.5 WK BEGINNING 10 D PRIOR TO CARCINOGEN DOSE (STUDY DURATION: 18.5 WK), Route [Inhibitor]: ORAL, Species: RAT, Strain/Sex: SPRAGUE-DAWLEY/FEMALE, Target Tissue: Type of Lesion: MAMMARY GLAND: TUMOR, Dose [Carcinogen]: 15 MG IN 1 ML OF SESAME OIL ONCE AT 50 D OF AGE, Promoter: NONE USED): 83%, 50%, 40%, not calculated | tumour outcome (control, treated, inhibition, significance) (Carcinogen: 7,12-DIMETHYLBENZ[A]ANTHRACENE, 57-97-6, Dose [Inhibitor]: 0, 128 MMOL/KG OF DIET FOR 20 D BEGINNING 10 D PRIOR TO CARCINOGEN DOSE (STUDY DURATION: 18.5 WK), Route [Inhibitor]: ORAL, Species: RAT, Strain/Sex: SPRAGUE-DAWLEY/FEMALE, Target Tissue: Type of Lesion: MAMMARY GLAND: TUMOR, Dose [Carcinogen]: 15 MG IN 1 ML OF SESAME OIL ONCE AT 50 D OF AGE, Promoter: NONE USED): 100%, 82%, 18%, not calculated | tumour outcome (control, treated, inhibition, significance) (Carcinogen: 7,12-DIMETHYLBENZ[A]ANTHRACENE, 57-97-6, Dose [Inhibitor]: 32 MMOL/KG OF CHOW DIET IN 25 ML OF THE VEHICLE (ETHANOL/TRICAPRYLIN 1:4 (VOL/VOL) PLUS 6% (WT/VOL) ALPHA-TOCOPHEROL) BE, Route [Inhibitor]: ORAL, Species: RAT, Strain/Sex: SPRAGUE-DAWLEY/FEMALE, Target Tissue: Type of Lesion: MAMMARY GLAND: TUMOR, Dose [Carcinogen]: 75 MG/KG BW IN 1.0 ML SESAME OIL ONCE, Promoter: NONE USED): 70%, 55%, 21%, not significant | tumour outcome (control, treated, inhibition, significance) (Carcinogen: 7,12-DIMETHYLBENZ[A]ANTHRACENE, 57-97-6, Dose [Inhibitor]: 64 MMOL/KG OF CHOW DIET IN 25 ML OF THE VEHICLE (ETHANOL/TRICAPRYLIN 1:4 (VOL/VOL) PLUS 6% (WT/VOL) ALPHA-TOCOPHEROL) BE, Route [Inhibitor]: ORAL, Species: RAT, Strain/Sex: SPRAGUE-DAWLEY/FEMALE, Target Tissue: Type of Lesion: MAMMARY GLAND: TUMOR, Dose [Carcinogen]: 75 MG/KG BW IN 1.0 ML SESAME OIL ONCE, Promoter: NONE USED): 70%, 55%, 21%, not significant | tumour outcome (control, treated, inhibition, significance) (Carcinogen: 7,12-DIMETHYLBENZ[A]ANTHRACENE, 57-97-6, Dose [Inhibitor]: 128 MMOL/KG OF CHOW DIET IN 25 ML OF THE VEHICLE (ETHANOL/TRICAPRYLIN 1:4 (VOL/VOL) PLUS 6% (WT/VOL) ALPHA-TOCOPHEROL) B, Route [Inhibitor]: ORAL, Species: RAT, Strain/Sex: SPRAGUE-DAWLEY/FEMALE, Target Tissue: Type of Lesion: MAMMARY GLAND: TUMOR, Dose [Carcinogen]: 75 MG/KG BW IN 1.0 ML SESAME OIL ONCE, Promoter: NONE USED): 70%, 35%, 50%, not significant | tumour outcome (control, treated, inhibition, significance) (Carcinogen: AZOXYMETHANE [25843-45-2], Dose [Inhibitor]: 3.5% IN DIET FOR 38 WK BEGINNING 1 WK POST LAST CARCINOGEN DOSE (STUDY DURATION: 40 WK), Route [Inhibitor]: ORAL, Species: RAT, Strain/Sex: F344/MALE, Target Tissue: Type of Lesion: COLON: TUMOR, Dose [Carcinogen]: 15 MG/KG BW 1X/WK FOR 2 WK (STUDY DURATION: 40 WK), Promoter: NONE): 15/26 (57.7%), 6/24 (25.0%), 57%, p<0.05

C=CCSC[C@H](N)C(=O)O
outcome (Carcinogen: 7,12-DIMETHYLBENZ[A]ANTHRACENE (57-97-6), Dose [Inhibitor]: 0, 200 MG/KG ON ALTERNATE DAYS FOR 14 WK (STUDY DURATION: 14 WK), Route [Inhibitor]: ORAL, Species: HAMSTER, Strain/Sex: SYRIAN/MALE, Target Tissue: Type of Lesion: BUCCAL POUCH: SQUAMOUS CELL CARCINOMA, Dose [Carcinogen]: 0.5% IN LIQUID PARAFFIN TO RIGHT BUCCAL POUCH, ALTERNATE DAYS FOR 14 WK, Promoter: NONE USED): 10, 0, 100%, not calculated | tumour outcome (control, treated, inhibition, significance) (Carcinogen: N-METHYL-N'-NITRO-N-NITROSOGUANIDINE [70-25-7], Dose [Inhibitor]: 200 MG/KG 3X/WK BEGINNING ON DAY 1 (STUDY DURATION: 21 WK), Route [Inhibitor]: GAVAGE, Species: RAT, Strain/Sex: WISTAR/MALE, Target Tissue: Type of Lesion: STOMACH: CARCINOMA, Dose [Carcinogen]: 200 MG/KG BW ONCE ON DAYS 0 AND 14, Promoter: SODIUM CHLORIDE [7647-14-5]): 6/6 (100%), 0/6 (0%), 100%, not determined | tumour outcome (control, treated, inhibition, significance) (Carcinogen: N-METHYL-N-NITROSOUREA, 684-93-5, Dose [Inhibitor]: 0, 57 UMOL/KG DIET FOR 25 WK BEGINNING 2 WK PRIOR TO CARCINOGEN DOSE (STUDY DURATION: 25 WK), Route [Inhibitor]: ORAL, Species: RAT, Strain/Sex: SPRAGUE-DAWLEY/FEMALE, Target Tissue: Type of Lesion: MAMMARY GLAND: TUMOR, Dose [Carcinogen]: 15 MG/KG BW ONCE, Promoter: NONE USED): 81%, 48%, 41%, p<0.05

O=S(=O)(O)c1ccc(S)cc1
tumour outcome (control, treated, inhibition, significance) (Carcinogen: BETA-PROPIOLACTONE, 57-57-8, Dose [Inhibitor]: 40 UMOL IN 0.2 ML WATER 5 MIN PRIOR TO EACH CARCINOGEN DOSE (STUDY DURATION: 26 WK), Route [Inhibitor]: GAVAGE, Species: MOUSE, Strain/Sex: STRAIN-A/FEMALE, Target Tissue: Type of Lesion: FORESTOMACH: PAPILLOMA, Dose [Carcinogen]: 28 UMOL IN 0.1 ML WATER 2/WK FOR 10 WK, Promoter: NONE USED): 100%, 57%, 43%, p<0.001 | tumour outcome (control, treated, inhibition, significance) (Carcinogen: BETA-PROPIOLACTONE, 57-57-8, Dose [Inhibitor]: 70 UMOL IN 0.2 ML WATER BEGINNING 5 MIN PRIOR TO EACH CARCINOGEN DOSE (STUDY DURATION: 50 WK), Route [Inhibitor]: INTRARECTAL, Species: RAT, Strain/Sex: F344/MALE, Target Tissue: Type of Lesion: LARGE INTESTINE: ADENOMATOUS POLYP, Dose [Carcinogen]: 35 UMOL IN 0.1 ML PROPYLENE GLYCOL 2/WK FOR 6 WK, Promoter: NONE USED): 100%, 21%, 79%, p<0.001

CCCCCCC(=O)O[C@H]1CC[C@H]2[C@@H]3CCC4=CC(=O)CC[C@]4(C)[C@H]3CC[C@]12C
tumour outcome (control, treated, inhibition, significance) (Carcinogen: 7,12-DIMETHYLBENZ[A]ANTHRACENE, 57-97-6, Dose [Inhibitor]: 0, 6 MG/100 G BW 1/WK FOR 150 D BEGINNING POST CARCINOGEN TREATMENT (STUDY DURATION: 150 D), Route [Inhibitor]: SUBCUTANEOUS, Species: RAT, Strain/Sex: WISTAR/FEMALE, Target Tissue: Type of Lesion: MAMMARY GLAND: ADENOCARCINOMA, Dose [Carcinogen]: 4 MG IN 0.1 ML OF SESAME OIL INJECTED ONCE INTO THE EXPOSED MAMMARY TISSUE OF HYPERPROLACTINEMIC RATS ON DAY 73 OF AGE, Promoter: NONE USED): 8/11 (73%), 2/8 (25%), 66%, p<0.05
